Experimental data from US20090075867A1, “Triazine compounds and compositions thereof for the treatment of cancers” (priority 2005, published 2009).
pIC50: −log10 of the molar value.

How the values were obtained:
[1] = system: B16F10, murine melanoma cell; assay: In vitro cytotoxicity (MTT) on B16F10; format: cell-based; settings: Mus musculus, B16-F10
Procedure: (§1) This assay was performed to determine the effect of compounds of the present invention on cell cytotoxicity. Cells were incubated in presence or absence of compounds in their respective conditioned media. […] The supernatant was discarded and 100 μl of dimethylsulfoxide (DMSO) was added. Absorbance was read at […] with an ELISA Tecan SUNRISE™ plate reader. The control group consisted of cells without compounds and is referred to as 100% of viable cells. IC50 was determined using PRISM® software.
(§2) The predictive utility of cell-based cytotoxicity assays to assess the potential in vivo anticancer activity of compounds with selected cancer cell lines is well established in the art and the use of whole cells, instead of isolated protein receptors or enzymes, provides a more reliable determination of activity. See, for example, Paull et al. J. Natl. Cancer Inst. 81:1088-1092 (1989); Monks et al. J. Natl. Cancer Inst. 83:757-766 (1991); Bandes et al. J. Natl. Cancer Inst. 86:770-775 (1994); and Kamate et al. Intl. J. Cancer 100:571-579 (2002).

[2] = system: PC-3, human prostate carcinoma cell; assay: In vitro cytotoxicity (MTT) on PC-3; format: cell-based
Procedure: as §1, §2

[3] = system: P815, murine mastocytoma cell; assay: In vitro cytotoxicity (MTT) on P815; format: cell-based; settings: Mus musculus
Procedure: as §1, §2

B16F10 lung metastases = format: in vivo
Procedure: Female 6-8-week old C57BL/6 mice were injected intravenously on day 0 with 1-2.5×10^5 B16F10 melanoma cells from ATCC (source of cell culture, Dr. I. J. Fidler). B16F10 melanoma cells are a highly metastatic cell line which preferentially forms nodules in the lungs. Cells were cultured in DMEM supplemented with 10% fetal bovine serum. […] Fourteen days after inoculation, mice were sacrificed and their lungs were removed, rinsed in PBS, and placed in Bouin's fixative. The number of metastatic nodules (black colonies) on the surface of the lungs were counted.

[4] = system: NHDF, Normal Human Dermal Fibroblast; assay: In vitro cytotoxicity (MTT) on NHDF; format: cell-based; settings: 24-hour cell culture
Procedure: as §1, §2

DA-3 = assay: In vitro cytotoxicity (MTT) on DA-3; format: cell-based, BALB/c mice; settings: Mus musculus
Procedure: as §1, §2
The syngeneic tumor DMBA3 (DA-3, breast carcinoma model) arose from a preneoplastic lesion treated with 7,12-dimethylbenzanthracene in female BALB/c mice. DA-3 cells were grown as monolayer cultures in plastic flasks in RPMI-1640 containing 0.1 mM nonessential amino acids, 0.1 μM sodium pyruvate, 2 mM L-glutamine. This was further supplemented with 50 μM 2-mercaptoethanol and 10% fetal bovine serum. The DA-3 tumors were serially passage in vivo by intradermal inoculation of 5×10^5 viable tumor cells to produce localized tumors in 6- to 8-week old BALB/c mice. The animals were then serially monitored by manual palpation for evidence of tumor. Mice were treated at day 11, 18 and 25 with cyclophosphamide (100 mg/kg) and at day 11, 12, 13, 15, 18, 20, 22, 25, 27 and 29 with compound 1, 2, 3 or 8 (50 mg/kg). Mice were sacrificed at day 43. Serial tumor volume was obtained by bi-dimensional diameter measurements with calipers, using the formula 0.4 (a×b^2) where “a” was the major tumor diameter and “b” the minor perpendicular diameter. […] The National Cancer Institute (USA) defines the product as effective if T/C is ≦40%.

| Compound | pIC50 ([1]; 24-hour cell culture) | pIC50 ([1]; 72-hour cell culture) | pIC50 ([2]; 24-hour cell culture) | pIC50 ([2]; 72-hour cell culture) | pIC50 ([3]; 24-hour cell culture) | pIC50 ([3]; 72-hour cell culture) | inhibition of the number of tumor nodules in lungs (B16F10 lung metastases; FIG. 5, p<0.05) [%] | pIC50 [4] | pIC50 (DA-3; 24-hour cell culture) | pIC50 (DA-3; 72-hour cell culture) | reduction of the number of tumor nodules (B16F10 lung metastases; FIG. 4, used alone, compound 50 mg/kg i.v., doxorubicin 1 mg/kg) [%] |
| --- | --- | --- | --- | --- | --- | --- | --- | --- | --- | --- | --- |
| CN(C)c1nc(NCCc2ccc(Nc3nc(NCCO)nc(Nc4cccc(N)c4)n3)cc2)nc(Nc2cccc(N)c2)n1 [Compound 12] | 5.92 | 5.70 | 4.96 | 5.48 | 4.87 | 5.55 |  |  |  |  |  |
| CN1CCN(c2nc(Nc3ccc(CCNc4nc(NCCO)nc(Nc5cccc(N)c5)n4)cc3)nc(Nc3cccc(N)c3)n2)CC1 [Compound 13] | 5.72 | 5.66 | 4.96 | 5.21 | 5.19 | 5.68 |  |  |  |  |  |
| Nc1cccc(Nc2nc(NCCO)nc(Nc3cccc(Nc4nc(NCCO)nc(Nc5cccc(F)c5)n4)c3)n2)c1 [Compound 14] | 5.59 | 4.99 | 4.52 | 4.81 | 4.88 | 5.11 | 50 |  |  |  |  |
| Nc1cccc(CCNc2nc(Nc3ccc(CCNc4nc(NCCO)nc(Nc5cccc(N)c5)n4)cc3)nc(Nc3cccc(N)c3)n2)c1 [Compound 15] | 5.74 | 5.54 | 4.96 | 5.37 | 4.87 | 5.48 |  |  |  |  |  |
| CN(C)c1nc(Nc2ccc(CCNc3nc(NCCO)nc(Nc4cccc(N)c4)n3)cc2)nc(Nc2cccc(N)c2)n1 [Compound 16] | 6.30 | 5.46 | 4.69 | 5.29 | 4.90 | 5.62 |  |  |  |  |  |
| Nc1cccc(Nc2nc(NCCO)nc(NCCc3ccc(Nc4nc(NCCc5ccccc5N)nc(Nc5cccc(N)c5)n4)cc3)n2)c1 [Compound 17] | 5.92 | 5.44 | 4.94 | 5.40 | 4.84 | 5.82 |  |  |  |  |  |
| CN1CCN(c2nc(NCCc3ccc(Nc4nc(Nc5cccc(N)c5)nc(N5CCN(C)CC5)n4)cc3)nc(Nc3cccc(N)c3)n2)CC1 [Compound 18] | 5.96 | 6.22 | 4.91 | 4.99 | 5.60 | 6.15 |  |  |  |  |  |
| Nc1cccc(Nc2nc(NCCO)nc(Nc3ccc(Nc4nc(NCCO)nc(Nc5cccc(F)c5)n4)cc3)n2)c1 [Compound 19] | 5.55 | 5.21 | 5.09 | 5.24 | 4.79 | 5.07 |  | 4.71 | 5.35 | 4.87 |  |
| COc1cccc2c1C(=O)c1c(O)c3c(c(O)c1C2=O)C[C@@](O)(C(=O)CO)C[C@@H]3O[C@H]1C[C@H](N)[C@H](O)[C@H](C)O1 [doxorubicin, reference compound] |  |  |  |  |  |  |  |  |  |  | 90 |
